In patent US20260008783A1, “MODULATORS OF FSHR AND USES THEREOF” (Celmatix Inc., priority 2022, published 2026):

Target: T1, Follicle Stimulating Hormone Receptor (FSHR) (Homo sapiens, UniProt P23945)
T1 construct: HA (N); expressed in transfected cells; host or cells: CHO-K1, transient transfection, pHM6 vector (CMV promoter)
T1 sequence (P23945 18-695): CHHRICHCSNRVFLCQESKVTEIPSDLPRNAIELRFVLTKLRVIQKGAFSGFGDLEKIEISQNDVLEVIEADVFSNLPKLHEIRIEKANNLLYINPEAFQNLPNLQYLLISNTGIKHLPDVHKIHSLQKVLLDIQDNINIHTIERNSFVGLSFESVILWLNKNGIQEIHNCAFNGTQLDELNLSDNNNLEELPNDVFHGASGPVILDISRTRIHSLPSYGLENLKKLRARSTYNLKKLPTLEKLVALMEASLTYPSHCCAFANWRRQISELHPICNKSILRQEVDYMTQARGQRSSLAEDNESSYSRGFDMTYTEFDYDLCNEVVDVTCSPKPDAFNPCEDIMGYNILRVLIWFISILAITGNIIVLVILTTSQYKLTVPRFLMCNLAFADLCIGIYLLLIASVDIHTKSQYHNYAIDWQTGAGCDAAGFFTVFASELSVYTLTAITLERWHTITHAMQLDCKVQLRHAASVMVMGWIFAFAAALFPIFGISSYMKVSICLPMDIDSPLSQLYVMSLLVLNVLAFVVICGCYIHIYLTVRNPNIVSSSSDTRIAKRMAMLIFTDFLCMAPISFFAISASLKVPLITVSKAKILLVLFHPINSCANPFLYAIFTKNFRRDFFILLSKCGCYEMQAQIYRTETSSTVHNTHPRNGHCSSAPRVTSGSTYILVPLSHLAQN
Assay: HTRF cAMP agonist assay, FSHR, transiently transfected CHO-K1 cells
Type: cell-based
Settings: CHO-K1 cells transiently expressing human FSHR, read-out: IC50 FSHR LANCE CAMP
Source text: Example 17. HTRF cAMP Agonist Assay Protocol (for FSHR, TSHR, LHCGR)
Mammalian expression vectors designed to express either Follicle Stimulating Hormone Receptor (FSHR), Thyroid Stimulating Hormone Receptor (TSHR), or Luteinizing Hormone/Choriogonadotropin Receptor (LHCGR), were generated with an HA-tag on the N-terminus. All constructs were expressed under a human cytomegalovirus (CMV) immediate early enhancer and promoter using the pHM6 expression vector. The protein coding region was confirmed by sequence analysis to be in-frame and of the expected sequence, matching the following accession numbers: FSHR NM_000145, TSHR NM_000369, and LHCGR NM_000233.
HTRF cAMP assays were performed using Chinese Hamster Ovary (CHO-K1) cell lines transiently expressing human FSH, TSH, and LHCG receptors. 48 hours before the assay, cells were washed with PBS and then dissociated from tissue culture flasks with 0.25% trypsin. Dissociated cells were quenched in full media (F-12K Medium Corning REF #10-025-CV, 10% Avantor Seradigm FB Essence Cat #10803-034, 1% Penicillin/Streptomycin Cytiva HyClone Cat #SV30010) and then collected by centrifugation at 290×g for 5 min. Cells were resuspended in full media and dispensed into 150 mm cell culture dishes (Nest Scientific Cat #715001), at 2.3×10^6 cells/flask. 7 hours later, cells were transfected using Lipofectamine transfection reagent (Invitrogen Cat #18324020). Briefly, 60 μL of lipofectamine was dispensed into 2 mL of Opti-MEM (Gibco Cat #31985070) and incubated for 5 minutes at room temperature. Then, the mixture was added onto […] of DNA and incubated for another 20 minutes at room temperature. Cells were washed with warm (37° C.) PBS. 17.5 mL of Opti-MEM was dispensed onto the cells, followed by addition of the Opti-MEM/lipofectamine/DNA mixture. Cells were incubated overnight in a 37° C., 5% CO2 cell incubator. 17-19 hours later, Opti-MEM was aspirated off the cells and replaced with full media. Cells were incubated for another 24 hours in a 37° C., 5% CO2 cell incubator.
On the day of the assay, cells were washed with PBS and then dissociated from tissue culture flasks with 0.25% trypsin. Dissociated cells were quenched in full media and then collected by centrifugation at 290×g for 5 min. Cells were resuspended in PBS^+/+ (Corning REF #20-030-CV) to a concentration of 2×10^5 cells/mL. 10 μL/well of cells (2,000 cells/well) were dispensed into 384-well Corning plates (REF #3825), in triplicate. Cells were incubated at room temperature for 2 hours.
Example FSHR Modulator compounds were diluted in assay buffer (PBS^+/+, 0.05% BSA Sigma-Aldrich A3059, 500 μM IBMX Sigma-Aldrich 15879) to 3.5× the final assay concentration. 4 μL of test agonist was added to the cells and incubated for 1 hour at room temperature. 10 μL of cAMP detection reagents (LANCE Ultra cAMP Detection Kit PerkinElmer TRF0264) were dispensed onto the cells and plates were incubated for 2 hours at room temperature (cAMP detection reagents were made according to the PerkinElmer kit protocol). Plates were read on an Envision plate reader following PerkinElmer guidelines.
Raw data for all assays was transmitted directly from plate readers into a database for processing. All assay plates contained both positive and negative control wells to allow for data normalization and scaling. In agonist assays, negative control wells contained assay buffer and positive control wells contained […] positive control (10 nM Follicle Stimulating Hormone Sigma-Aldrich F4021, 50 nM Thyroid Stimulating Hormone Sigma-Aldrich 869006, 50 nM Luteinizing Hormone MyBioSource MBS5308806, for their respective receptors). All control wells contained DMSO at a final assay concentration that matched the test compound wells. […]
Percent control data were analyzed by non-linear regression with a sigmoidal dose response algorithm in the database to yield potency and efficacy data.

`COc1cc2c(cc1-c1cncc(C(N)=O)c1)-c1c(c(C(=O)N3CCCNCC3(C)C)nn1-c1cc(Cl)cc(Cl)c1)CC2` [Compound 8-04, 5-[1-(3,5-dichlorophenyl)-3-(2,2-dimethyl-1,4-diazepane-1-carbonyl)-7-methoxy-4,5-dihydrobenzo[g]indazol-8-yl]pyridine-3-carboxamide] showed an IC50 of 28.3 nM.
`COc1cc2c(cc1-c1cncc(C(N)=O)c1)-c1c(c(C(=O)N3CCC(=O)NCC3(C)C)nn1-c1cc(Cl)cc(Cl)c1)CC2` [Compound 8-04A, 5-[1-(3,5-dichlorophenyl)-3-(2,2-dimethyl-5-oxo-1,4-diazepane-1-carbonyl)-7-methoxy-4,5-dihydrobenzo[g]indazol-8-yl]pyridine-3-carboxamide] was tested, and the IC50 was 9.79 nM.
Molecule `COc1cc2c(cc1-c1cncc(C(N)=O)c1)-c1c(c(C(=O)N3CCN(C)CC3C)nn1-c1cc(Cl)cc(Cl)c1)CC2` (centres unmarked) [Compound 8-05, 5-[1-(3,5-dichlorophenyl)-3-(2,4-dimethylpiperazine-1-carbonyl)-7-methoxy-4,5-dihydrobenzo[g]indazol-8-yl]pyridine-3-carboxamide] has an IC50 of 60.3 nM.
Molecule `COc1cc2c(cc1-c1cncc(C(N)=O)c1)-c1c(c(C(=O)N3CCN(C)CC3(C)C)nn1-c1cc(Cl)cc(Cl)c1)CC2` [Compound 8-06] has an IC50 of 17.6 nM.
`COc1cc2c(cc1-c1cncc(C(N)=O)c1)-c1c(c(C(=O)N3CCCN(C)CC3)nn1-c1cc(Cl)cc(Cl)c1)CC2` [Compound 8-07, 5-[1-(3,5-dichlorophenyl)-7-methoxy-3-(4-methyl-1,4-diazepane-1-carbonyl)-4,5-dihydrobenzo[g]indazol-8-yl]pyridine-3-carboxamide] gave an IC50 of 115 nM.
`COc1cc2c(cc1-c1cncc(C#N)c1)-c1c(c(C(=O)N3CCCN(C)CC3)nn1-c1cc(Cl)cc(Cl)c1)CC2` [Compound 8-07A, 5-(1-(3,5-dichlorophenyl)-7-methoxy-3-(4-methyl-1,4-diazepane-1-carbonyl)-4,5-dihydro-1H-benzo[g]indazol-8-yl)nicotinonitrile] showed an IC50 of 3040 nM.
Work on `COc1cc2c(cc1-c1cncc(C(N)=O)c1)-c1c(c(C(=O)N3CCN(C#N)CC3C)nn1-c1cc(Cl)cc(Cl)c1)CC2` (centres unmarked) [Compound 8-09, 5-[3-(4-cyano-2-methyl-piperazine-1-carbonyl)-1-(3,5-dichlorophenyl)-7-methoxy-4,5-dihydrobenzo[g]indazol-8-yl]pyridine-3-carboxamide] yielded an IC50 of 4.44 nM.
Molecule `COc1cc2c(cc1-c1cncc(C(N)=O)c1)-c1c(c(C(=O)N(C)C(C)(C)CO)nn1-c1cc(Cl)cc(Cl)c1)CC2` [Compound 8-10] has an IC50 of 991 nM.
For `COc1cc2c(cc1-c1cncc(C(N)=O)c1)-c1c(c(C(=O)N3CCC(S(C)(=O)=O)CC3C)nn1-c1cc(Cl)cc(Cl)c1)CC2` (centres unmarked) [Compound 8-13, 5-[1-(3,5-dichlorophenyl)-7-methoxy-3-(2-methyl-4-methylsulfonyl-piperidine-1-carbonyl)-4,5-dihydrobenzo[g]indazol-8-yl]pyridine-3-carboxamide], the IC50 was 244 nM.
`COc1cc2c(cc1-c1cncc(C(N)=O)c1)-c1c(c(C(=O)N3CCCC3(C)C)nn1-c1cc(Cl)cc(Cl)c1)CC2` [Compound 8-14] was tested, and the IC50 was 3.47 nM.
`COc1cc2c(cc1-c1cncc(C(N)=O)c1)-c1c(c(C(=O)N3C4CCC3CN(C)C4)nn1-c1cc(Cl)cc(Cl)c1)CC2` [Compound 8-15] gave an IC50 of 33.2 nM.
For `COc1cc2c(cc1-c1cncc(C(N)=O)c1)-c1c(c(C(=O)N3C4CC3CN(C(=O)OC(C)(C)C)C4)nn1-c1cc(Cl)cc(Cl)c1)CC2` [Compound 8-16A], the IC50 was 79.3 nM.
For `COc1cc2c(cc1-c1cncc(C(N)=O)c1)-c1c(c(C(=O)N3C4CNCC3C4)nn1-c1cc(Cl)cc(Cl)c1)CC2` [Compound 8-16B], the IC50 was 769 nM.
For `COc1cc2c(cc1-c1cncc(C(N)=O)c1)-c1c(c(C(=O)N3C4CC3CN(C)C4)nn1-c1cc(Cl)cc(Cl)c1)CC2` [Compound 8-16], the IC50 was 70.4 nM.
With `COc1cc2c(cc1-c1cncc(C(N)=O)c1)-c1c(c(C(=O)N3CC4CCC3CN4C)nn1-c1cc(Cl)cc(Cl)c1)CC2` (centres unmarked) [Compound 8-17] the IC50 was 115 nM.
Work on `COc1cc2c(cc1-c1cncc(C(N)=O)c1)-c1c(c(C(=O)N3[C@@H]4CC[C@H]3CN(C)C4)nn1-c1cc(Cl)cc(Cl)c1)CC2` [Compound 8-18] yielded an IC50 of 18 nM.
`COc1cc2c(cc1-c1cncc(C(N)=O)c1)-c1c(c(C(=O)N3[C@H](C)CNC[C@@H]3C)nn1-c1cc(Cl)cc(Cl)c1)CC2` [Compound 8-21] was tested, and the IC50 was 5.38 nM.
For `COc1cc2c(cc1-c1cncc(C(N)=O)c1)-c1c(c(C(=O)N3[C@@H](C)CNC[C@@H]3C)nn1-c1cc(Cl)cc(Cl)c1)CC2` [Compound 8-22], the IC50 was 34.9 nM.
In the case of `COc1cc2c(cc1-c1cncc(C(N)=O)c1)-c1c(c(C(=O)N3CCC4CNCCC43)nn1-c1cc(Cl)cc(Cl)c1)CC2` (centres unmarked) [Compound 8-23, 5-[3-(2,3,3a,4,5,6,7,7a-octahydropyrrolo[3,2-c]pyridine-1-carbonyl)-1-(3,5-dichlorophenyl)-7-methoxy-4,5-dihydrobenzo[g]indazol-8-yl]pyridine-3-carboxamide], the IC50 is reported as 457 nM.
`COc1cc2c(cc1-c1cncc(C(N)=O)c1)-c1c(c(C(=O)N3CCC4CN(C(=O)OC(C)(C)C)CCC43)nn1-c1cc(Cl)cc(Cl)c1)CC2` (centres unmarked) [Compound 8-23A, tert-butyl 1-[8-(5-carbamoyl-3-pyridyl)-1-(3,5-dichlorophenyl)-7-methoxy-4,5-dihydrobenzo[g]indazole-3-carbonyl]-3,3a,4,6,7,7a-hexahydro-2H-pyrrolo[3,2-c]pyridine-5-carboxylate] gave an IC50 of 928 nM.
`COc1cc2c(cc1-c1cncc(C(N)=O)c1)-c1c(c(C(=O)N3CC4CCC3CN4)nn1-c1cc(Cl)cc(Cl)c1)CC2` (centres unmarked) [Compound 8-24] gave an IC50 of 524 nM.
`COc1cc2c(cc1-c1cncc(C(N)=O)c1)-c1c(c(C(=O)N3CCNC[C@H]3C(C)C)nn1-c1cc(Cl)cc(Cl)c1)CC2` [Compound 8-25] was tested, and the IC50 was 71.8 nM.
In the case of `COc1cc2c(cc1-c1cncc(C#N)c1)-c1c(c(C(=O)N3CCNC(=O)C3(C)C)nn1-c1cc(Cl)cc(Cl)c1)CC2` [Compound 8-26A], the IC50 is reported as 10.3 nM.
Work on `COc1cc2c(cc1-c1cncc(C(N)=O)c1)-c1c(c(C(=O)N3CCNC(=O)C3(C)C)nn1-c1cc(Cl)cc(Cl)c1)CC2` [Compound 8-26] yielded an IC50 of 16.3 nM.
Work on `COc1cc2c(cc1-c1cncc(C(N)=O)c1)-c1c(c(C(=O)N3CCNC(=O)C3(C)C)nn1-c1cc(Cl)cc(Cl)c1)CC2` [Compound 8-26b] yielded an IC50 of 20.3 nM.
For `COc1cc2c(cc1-c1cncc(C(N)=O)c1)-c1c(c(C(=O)N3CCCC34COC4)nn1-c1cc(Cl)cc(Cl)c1)CC2` [Compound 8-27], the IC50 was 30 nM.
